# Results published in patent US20100216779A1 (GLAXOSMITHKLINE LLC, priority 2007, published 2010).
# Tests used:
# [1] = system: COLO205 (colon); test: Inhibition of cell proliferation, CellTiter-Glo, COLO205; assay type: cell-based; conditions: Homo sapiens, COLO 205, 72 h
# Description: C. Inhibition of Cell Proliferation
# Cell proliferation was measured by either CellTiter-Glo (measures cellular ATP level as a surrogate for total cell number) or by InCell analyzer (counts number of nuclei as a measure of cell number). For CellTiter-Glo assay, exponentially growing cell lines of different tumor origins, cultured in appropriate media containing 10% fetal bovine serum at 37° C. in a 5% CO2 incubator, were plated at low density (less than 2000 cells/well) in 96-well plates. […] Several wells were left untreated as a control. Seventy two hours post-treatment, cell numbers were determined using 50-100 ul per well of CellTiter-Glo (Promega #G7573). Plates were incubated at 37° C. for 30 minutes and the chemiluminescent signal was read on the Victor V or Envison 2100 reader. […]
# [2] = molecular target: T1, human IGF-1R (NIH-3T3 cells over expressing human IGF-1R) (Homo sapiens, UniProt P08069); test: IGF-1R cellular autophosphorylation (DELFIA); assay type: cell-based; conditions: IGF-1 stimulated
# T1 construct: expressed in transfected cells; host or cells: NIH-3T3 (mouse fibroblasts)
# T1 sequence (P08069 31-1367): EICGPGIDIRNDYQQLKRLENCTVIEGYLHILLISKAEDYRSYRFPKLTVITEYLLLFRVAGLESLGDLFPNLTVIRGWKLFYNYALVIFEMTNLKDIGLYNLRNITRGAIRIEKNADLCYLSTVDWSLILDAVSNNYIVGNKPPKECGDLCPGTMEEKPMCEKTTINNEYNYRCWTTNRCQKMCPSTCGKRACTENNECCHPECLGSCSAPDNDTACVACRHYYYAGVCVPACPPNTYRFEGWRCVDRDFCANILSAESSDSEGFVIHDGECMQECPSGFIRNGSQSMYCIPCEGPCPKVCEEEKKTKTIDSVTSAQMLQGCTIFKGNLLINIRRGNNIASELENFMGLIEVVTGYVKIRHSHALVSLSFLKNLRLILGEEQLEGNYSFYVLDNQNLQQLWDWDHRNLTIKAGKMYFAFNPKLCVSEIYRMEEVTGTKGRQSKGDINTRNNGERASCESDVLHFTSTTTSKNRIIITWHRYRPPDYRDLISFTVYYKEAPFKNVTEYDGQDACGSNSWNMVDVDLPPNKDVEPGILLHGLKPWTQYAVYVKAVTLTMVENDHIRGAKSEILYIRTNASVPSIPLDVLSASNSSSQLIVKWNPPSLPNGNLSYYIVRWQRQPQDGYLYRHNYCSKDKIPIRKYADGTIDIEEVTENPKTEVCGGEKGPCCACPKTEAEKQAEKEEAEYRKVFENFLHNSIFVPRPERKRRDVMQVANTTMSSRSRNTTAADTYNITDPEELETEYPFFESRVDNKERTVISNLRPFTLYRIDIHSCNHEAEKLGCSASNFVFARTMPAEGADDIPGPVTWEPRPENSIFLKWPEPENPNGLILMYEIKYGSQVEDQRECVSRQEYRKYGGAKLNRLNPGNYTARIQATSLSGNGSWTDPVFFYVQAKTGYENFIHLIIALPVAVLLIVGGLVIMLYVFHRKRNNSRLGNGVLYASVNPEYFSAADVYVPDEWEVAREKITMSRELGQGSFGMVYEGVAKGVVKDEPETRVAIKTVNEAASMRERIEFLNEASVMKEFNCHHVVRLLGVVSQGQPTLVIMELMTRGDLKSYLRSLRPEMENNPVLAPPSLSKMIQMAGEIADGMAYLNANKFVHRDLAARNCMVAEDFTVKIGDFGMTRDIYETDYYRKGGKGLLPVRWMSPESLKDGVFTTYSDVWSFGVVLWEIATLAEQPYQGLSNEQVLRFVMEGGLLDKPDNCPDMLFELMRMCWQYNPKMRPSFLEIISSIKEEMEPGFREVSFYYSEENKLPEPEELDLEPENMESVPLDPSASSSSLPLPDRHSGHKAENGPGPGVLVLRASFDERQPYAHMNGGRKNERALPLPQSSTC
# Description: D. IGF-1R and IR Cellular Autophosphorylation (DELFIA)
# NIH-3T3 cells over expressing human IGF-1R or IR were plated in 96-well plates (10,000 cells/well) in culture media containing 10% fetal bovine serum and incubated at 37° C. in a 5% CO2 incubator. Twenty four hours post-plating, cells were treated with different concentrations of test compounds ranging from 30 uM to 1.5 nM. Two hours after compound addition, cells were stimulated with either human IGF-1 (30 ng/mL) or insulin (3 ug/mL) for 15 minutes. Cell lysates are analyzed for phosphorylated receptors using dissociation enhanced lanthanide fluor-immuno assay (DELFIA) with anti-IGF-1R (MAB391, R&D Systems, Minneapolis, Minn.) or anti-IR[…](sc-711, Santa Cruz Biotechnology, Santa Cruz, Calif.) capture antibody and europium-labeled anti-pTyr antibody (Eu-N1 PT66, Perkin Elmer, Waltham, Mass.) for detection. The fluorescence signal for cells treated with compounds was expressed as percent relative to 100% stimulation (IGF-1 or insulin stimulated signal). […]
Compound,IC50 [1] [nM],IC50 [2] [nM]
"COc1ccn2c(-c3ccnc(Nc4cccc(OCCN(C)C)c4)n3)c(-c3ccc(OC)c(C(=O)Nc4c(F)cccc4F)c3)nc2c1 [Example 3, N-(2,6-difluorophenyl)-5-[3-{2-[(3-{[2-(dimethylamino)ethyl]oxy}phenyl)amino]-4-pyrimidinyl}-7-(methyloxy)imidazo[1,2-a]pyridin-2-yl]-2-(methyloxy)benzamide]",250 to 1000,100 to 500
"CN(C)CCOc1cccc(Nc2nccc(-c3c(-c4cccc(C(=O)Nc5cc(Cl)ccc5F)c4)nc4ccccn34)n2)c1 [Example 9, N-(5-chloro-2-fluorophenyl)-3-(3-{2-[(3-{[2-(dimethylamino)ethyl]oxy}phenyl)amino]-4-pyrimidinyl}imidazo[1,2-a]pyridin-2-yl)benzamide]",–,100 to 500
"CN(C)CCOc1cccc(Nc2nccc(-c3c(-c4cccc(C(=O)Nc5cc(C(F)(F)F)ccc5F)c4)nc4ccccn34)n2)c1 [Example 10, 3-(3-{2-[(3-{[2-(dimethylamino)ethyl]oxy}phenyl)amino]-4-pyrimidinyl}imidazo[1,2-a]pyridin-2-yl)-N-[2-fluoro-5-(trifluoromethyl)phenyl]benzamide]",–,100 to 500
CN(C)CCOc1cccc(Nc2nccc(-c3c(-c4cccc(C(=O)Nc5ccc(F)cc5F)c4)nc4ccccn34)n2)c1 [Example 13],–,< 100
"Cc1ccn2c(-c3ccnc(Nc4cccc(OCCN(C)C)c4)n3)c(-c3cccc(C(=O)Nc4c(F)cccc4F)c3)nc2c1 [Example 14, N-(2,6-difluorophenyl)-3-(3-{2-[(3-{[2-(dimethylamino)ethyl]oxy}phenyl)amino]-4-pyrimidinyl}-7-methylimidazo[1,2-a]pyridin-2-yl)benzamide]",–,> 500
"CN(C)CCOc1cccc(Nc2nccc(-c3c(-c4cccc(C(=O)Nc5c(F)cccc5F)c4)nc4ccccn34)n2)c1 [Example 20, N-(2,6-difluorophenyl)-3-(3-{2-[(3-{[2-(dimethylamino)ethyl]oxy}phenyl)amino]-4-pyrimidinyl}imidazo[1,2-a]pyridin-2-yl)benzamide]",< 250,100 to 500
Cc1c(CN2CCN(C)CC2)cccc1Nc1nccc(-c2c(-c3cccc(C(=O)Nc4c(F)cccc4F)c3)nc3ccccn23)n1 [Example 24],250 to 1000,< 100
"COc1ccc(-c2nc3ccccn3c2-c2ccnc(Nc3cccc(CN4CCN(C)CC4)c3C)n2)cc1C(=O)Nc1c(F)cccc1F [Example 25, N-(2,6-difluorophenyl)-5-{3-[2-({2-methyl-3-[(4-methyl-1-piperazinyl)methyl]phenyl}amino)-4-pyrimidinyl}imidazo[1,2-a]pyridin-2-yl]-2-(methyloxy)benzamide]",250 to 1000,100 to 500
"COc1cc(-c2nnc(CN3CCCC3)o2)ccc1Nc1nccc(-c2c(-c3ccc(OC)c(C(=O)Nc4c(F)cccc4F)c3)nc3ccccn23)n1 [Example 28, N-(2,6-difluorophenyl)-2-(methyloxy)-5-{3-[2-({2-(methyloxy)-4-[5-(1-pyrrolidinylmethyl)-1,3,4-oxadiazol-2-yl]phenyl]amino)-4-pyrimidinyl}imidazo[1,2-a]pyridin-2-yl}benzamide]",–,100 to 500
"COc1cc(-c2nnc(CN3CCCC3)o2)ccc1Nc1nccc(-c2c(-c3cccc(C(=O)Nc4c(F)cccc4F)c3)nc3ccccn23)n1 [Example 29, N-(2,6-difluorophenyl)-3-{3-[2-({2-(methyloxy)-4-[5-(1-pyrrolidinylmethyl)-1,3,4-oxadiazol-2-yl]phenyl}amino)-4-pyrimidinyl]imidazo[1,2-a]pyridin-2-yl}benzamide]",–,100 to 500
"COc1ccc(N2CCC(N3CCCCC3)CC2)cc1Nc1nccc(-c2c(-c3cccc(C(=O)Nc4c(F)cccc4F)c3)nc3ccccn23)n1 [Example 30, 3-[3-(2-{[5-(1,4′-bipiperidin-1′-yl)-2-(methyloxy)phenyl]amino}-4-pyrimidinyl)imidazo[1,2-a]pyridin-2-yl]-N-(2,6-difluorophenyl)benzamide]",250 to 1000,100 to 500
"COc1ccc(N2CCC(N3CCCCC3)CC2)cc1Nc1nccc(-c2c(-c3ccc(OC)c(C(=O)Nc4c(F)cccc4F)c3)nc3ccccn23)n1 [Example 31, 5-[3-(2-{[5-(1,4′-bipiperidin-1-yl)-2-(methyloxy)phenyl]amino}-4-pyrimidinyl)imidazo[1,2-a]pyridin-2-yl]-N-(2,6-difluorophenyl)-2-(methyloxy)benzamide]",250 to 1000,< 100
"COc1cc(N2CCC(N3CCOCC3)CC2)ccc1Nc1nccc(-c2c(-c3cccc(C(=O)Nc4c(F)cccc4F)c3)nc3ccccn23)n1 [Example 38, N-(2,6-difluorophenyl)-3-{3-[2-({2-(methyloxy)-4-[4-(4-morpholinyl)-1-piperidinyl]phenyl}amino)-4-pyrimidinyl]imidazo[1,2-a]pyridin-2-yl}benzamide]",250 to 1000,< 100
COc1cc(N2CCC(N3CCN(S(C)(=O)=O)CC3)CC2)ccc1Nc1nccc(-c2c(-c3ccc(OC)c(C(=O)Nc4c(F)cccc4F)c3)nc3ccccn23)n1 [Example 69],250 to 1000,–
"COc1cc(N2CCOCC2)ccc1Nc1nccc(-c2c(-c3cccc(C(=O)Nc4c(F)cccc4F)c3)nc3ccccn23)n1 [Example 71, N-(2,6-difluorophenyl)-3-[3-(2-{[2-(methyloxy)-4-(4-morpholinyl)phenyl]amino}-4-pyrimidinyl)imidazo[1,2-a]pyridin-2-yl]benzamide]",250 to 1000,< 100
"COc1cc(N2CCC(N(C)C)CC2)ccc1Nc1nccc(-c2c(-c3cccc(C(=O)Nc4c(F)cccc4F)c3)nc3ccccn23)n1 [Example 74, N-(2,6-difluorophenyl)-3-[3-(2-{[4-[4-(dimethylamino)-1-piperidinyl]-2-(methyloxy)phenyl]amino}-4-pyrimidinyl)imidazo[1,2-a]pyridin-2-yl]benzamide]",< 250,< 100
"COc1cc(N2CCC(N3CCCC(F)(F)C3)CC2)ccc1Nc1nccc(-c2c(-c3cccc(C(=O)Nc4c(F)cccc4F)c3)nc3ccccn23)n1 [Example 75, 3-[3-(2-{[4-(3,3-difluoro-1,4′-bipiperidin-1′-yl)-2-(methyloxy)phenyl]amino]-4-pyrimidinyl)imidazo[1,2-a]pyridin-2-yl]-N-(2,6-difluorophenyl)benzamide]",250 to 1000,< 100
"COc1cc(N2CCC(N3CC[C@@H](F)C3)CC2)ccc1Nc1nccc(-c2c(-c3cccc(C(=O)Nc4c(F)cccc4F)c3)nc3ccccn23)n1 [Example 76, N-(2,6-difluorophenyl)-3-[3-(2-{[4-{4-[(3R)-3-fluoro-1-pyrrolidinyl]-1-piperidinyl}-2-(methyloxy)phenyl]amino}-4-pyrimidinyl)imidazo[1,2-a]pyridin-2-yl]benzamide]",250 to 1000,< 100
"COc1cc(N2CCC(N3CC[C@H](F)C3)CC2)ccc1Nc1nccc(-c2c(-c3cccc(C(=O)Nc4c(F)cccc4F)c3)nc3ccccn23)n1 [Example 77, N-(2,6-difluorophenyl)-3-[3-(2-{[4-{4-[(3S)-3-fluoro-1-pyrrolidinyl]-1-piperidinyl}-2-(methyloxy)phenyl]amino}-4-pyrimidinyl)imidazo[1,2-a]pyridin-2-yl]benzamide]",250 to 1000,< 100
